Legend:
[1] = target: NACHT, LRR and PYD domains-containing protein 3 (Mus musculus, UniProt Q8R4B8); test: Inhibition of NLRP3 in mouse J774A.1 cells infected with FLA-ST assessed as inhibition of LPS- induced IL-1beta production by ELISA; assay type: cell-based, J774.A1
[2] = Stability assessed as glutathione reactivity of compound incubated for 24 hrs; assay type: physicochemical
[3] = Selectivity index, ratio of TC50 for cytotoxicity against human HEK293T cells to IC50 for inhibition of NLRP3 in mouse J774A.1 cells
[4] = Cytotoxicity against human HEK293T cells assessed as reduction in cell viability at 24 hrs by CCK8 assay; assay type: cell-based, HEK-293T; conditions: read-out: TD50

Sequence of NACHT, LRR and PYD domains-containing protein 3 (Q8R4B8 whole entry, the tested form may be a part): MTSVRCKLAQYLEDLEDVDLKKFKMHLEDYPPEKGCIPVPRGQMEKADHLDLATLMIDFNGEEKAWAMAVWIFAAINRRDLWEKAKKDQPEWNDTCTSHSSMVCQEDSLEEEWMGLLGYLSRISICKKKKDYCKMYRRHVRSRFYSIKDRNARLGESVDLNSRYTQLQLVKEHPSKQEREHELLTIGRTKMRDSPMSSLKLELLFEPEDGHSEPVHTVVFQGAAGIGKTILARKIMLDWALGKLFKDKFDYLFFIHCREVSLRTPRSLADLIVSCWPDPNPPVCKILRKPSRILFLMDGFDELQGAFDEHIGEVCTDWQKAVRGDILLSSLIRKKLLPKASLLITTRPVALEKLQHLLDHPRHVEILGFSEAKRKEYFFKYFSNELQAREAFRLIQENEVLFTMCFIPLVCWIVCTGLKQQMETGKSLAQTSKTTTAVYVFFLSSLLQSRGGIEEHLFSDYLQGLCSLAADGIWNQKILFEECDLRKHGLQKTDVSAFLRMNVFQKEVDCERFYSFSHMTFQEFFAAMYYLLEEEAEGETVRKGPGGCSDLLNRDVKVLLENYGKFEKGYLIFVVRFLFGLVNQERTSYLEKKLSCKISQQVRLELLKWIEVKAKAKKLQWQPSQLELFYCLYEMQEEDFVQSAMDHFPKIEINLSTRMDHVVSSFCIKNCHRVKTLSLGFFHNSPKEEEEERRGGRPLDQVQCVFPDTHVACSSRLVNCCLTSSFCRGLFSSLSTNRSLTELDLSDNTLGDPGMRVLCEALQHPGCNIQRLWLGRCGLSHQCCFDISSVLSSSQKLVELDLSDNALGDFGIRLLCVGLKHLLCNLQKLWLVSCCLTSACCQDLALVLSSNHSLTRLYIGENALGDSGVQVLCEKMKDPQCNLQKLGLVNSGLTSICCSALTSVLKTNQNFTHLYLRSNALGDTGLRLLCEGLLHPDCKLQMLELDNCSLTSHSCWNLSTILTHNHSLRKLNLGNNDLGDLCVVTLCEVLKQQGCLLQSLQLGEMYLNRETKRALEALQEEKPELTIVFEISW

| Structure (SMILES) | IC50 [1] | further results |
| --- | --- | --- |
| CSc1ccc(C(=O)/C=C/c2cc(C)c(OCCCN3CCOCC3)c(C)c2)cc1 | 21.9 µM | – |
| CCC(Oc1c(C)cc(/C=C/C(=O)c2ccc(SC)cc2)cc1C)C(=O)O (configuration not stated) | 31.7 µM | – |
| CCc1cc(/C=C/C(=O)c2ccc(SC)cc2)cc(CC)c1O | 11.7 µM | – |
| CSc1ccc(C(=O)/C=C/c2ccc3c(c2)CCO3)cc1 | 24.2 µM | – |
| CCCNC(=O)Nc1ccc(C(=O)/C=C/c2cc(C)c(OC)c(C)c2)cc1 | 9.6 µM | – |
| CSc1ccc(C(=O)/C=C/c2cc(C)c(O)cc2C)cc1 | 5.3 µM | – |
| Cc1cc(/C=C/C(=O)c2ccc(I)cc2)cc(C)c1O | 28.6 µM | – |
| CSc1ccc(C(=O)/C=C/c2cc(C)c(O)c(C)c2)cc1 | 2.1 µM | Stabilty [2]: Stable; Selectivity Index [3]: 41; CC50 at 24 h [4]: 86.2 µM |
| COc1c(C)cc(/C=C/C(=O)c2ccc(NC(=O)Nc3ccc(F)cc3)cc2)cc1C | 23.5 µM | – |
| COc1c(C)cc(/C=C/C(=O)c2ccc(NC(=O)NC(C)C)cc2)cc1C | 33.2 µM | – |
| CSc1ccc(C(=O)/C=C/c2cc(C)c(OCCO)c(C)c2)cc1 | 12.7 µM | – |
| COc1c(C)cc(/C=C/C(=O)c2ccc(N(C)C)cc2)cc1C | 25.9 µM | – |
| CSc1ccc(C(=O)/C=C/c2ccc(O)c(Cl)c2)cc1 | 9.7 µM | – |
| CCN(CC)C(=S)SSC(=S)N(CC)CC [DISULFIRAM] | 3 µM | – |
| COc1c(C)cc(/C=C/C(=O)c2ccc(N)cc2)cc1C | 5.7 µM | – |
| CSc1ccc(C(=O)/C=C/c2cc(C)c(OCCCCC(=O)O)c(C)c2)cc1 | 28.9 µM | – |
| CSc1ccc(C(=O)/C=C/c2c(C)cc(O)cc2C)cc1 | > 40 µM | – |
| C=C(COc1c(C)cc(/C=C/C(=O)c2ccc(SC)cc2)cc1C)C(=O)O | > 40 µM | – |
| Cc1cc(/C=C/C(=O)c2ccc(-c3cccs3)cc2)cc(C)c1O | > 40 µM | – |
| CSc1ccc(C(=O)/C=C/c2cc(C)c(OC(C)(C)C(=O)O)c(C)c2)cc1 [ELAFIBRANOR] | 39.6 µM | Selectivity Index [3]: 3.6; CC50 at 24 h [4]: 142 µM |
| CSc1ccc(C(=O)/C=C/c2ccc(O)c(F)c2)cc1 | 10.7 µM | – |
| Cc1cc(/C=C/C(=O)c2ccc([S+](C)[O-])cc2)cc(C)c1O (configuration not stated) | 10.6 µM | – |

Source: ChEMBL document CHEMBL4814056, “Discovery of chalcone analogues as novel NLRP3 inflammasome inhibitors with potent anti-inflammation activities” (Eur J Med Chem, 2021)
